Test results taken from patent publication US20200277378A1, “COMBINATION THERAPIES” (Novartis AG, priority 2017, published 2020).
Structures can show the parent of a compound that is named as a salt.

How the values were obtained:
MC38 tumors = test: PD-L1 expression on tumor-infiltrating dendritic cells and macrophages in MC38 colon carcinoma mouse model; type: in vivo, C57BL/6 mice; settings: combination BLZ945 200 mg/kg p.o. weekly + 5D12 10 mg/kg i.p. biweekly, day 9
Protocol: C57BL/6 mice (Charles River Laboratories) were implanted with 1×10^6 MC38 cells subcutaneously. When tumors were 70-100 mm3 in size, mice were randomized into groups of 8 animals and treated with an anti-TIM-3 antibody (5D12), a CSF-1R binding agent (BLZ945), both 5D12 antibody and BLZ945, or with vehicle control. Mice were dosed orally (p.o.) or intraperitoneally (i.p.). The groups of mice were dosed as follows:
Group 1) Vehicle p.o+antibody Isotype (mIgG1) i.p; Group 2) BLZ945 200 mg/kg p.o+antibody isotype (mIgG1) i.p; Group 3) Vehicle p.o+5D12 (mouse anti-TIM-3) 10 mg/kg i.p; Group 4) BLZ945 200 mg/kg p.o+5D12 (mouse anti-TIM-3) 10 mg/kg i.p. BLZ945 was dosed weekly and 5D12 was dosed biweekly.
At Day 9 post-treatment initiation, mice were sacrificed. Tumors were harvested and processed into single cell suspensions for analysis by flow cytometry. The single cell suspension was generated using a combination of dispase, collagenase and DNase 1. The tumor infiltrating immune cells were analyzed by flow cytometry. Samples were acquired on a BD Fortessa and data was analyzed using Flowjo. Populations were defined as follows: dendritic cells (CD45+CD11b+Ly6C-MHC-II+Ly6G-F480−) and macrophages (CD45+CD11b+Ly6C-MHC-II+Ly6G-F480+). Levels of PD-L1 expression were analyzed as the mean fluorescence intensity of signal in the PD-L1 channel. […]

[1] = test system: PBMCs from whole blood activated by SEB; type: cell-based, human
[2] = Clinical study of PDR001 in combination with a CXCR2 inhibitor (DLT evaluation); type: in vivo, human; settings: PDR001 400 mg Q4W + CXCR2 inhibitor 75 mg BID 2 weeks on/2 week off; seven patients dosed, two completed 56-day DLT period
Protocol: The primary objective of this study is to combine the PDR001 checkpoint inhibitor with the CXCR2 inhibitor, 6-chloro-3-((3,4-dioxo-2-(pentan-3-ylamino)cyclobut-1-en-1-yl)amino)-2-hydroxy-N-methoxy-N-methylbenzenesulfonamide choline salt, to identify the doses and schedule for combination therapy and to preliminarily assess the safety, tolerability, pharmacological and clinical activity of these combinations.
Patients are dosed on a flat scale and not by body weight or body surface area. Dosing of the CXCR2 inhibitor occurs immediately after completion of the PDR001 infusion during clinic visits. Patients are treated with 400 mg PDR001 every four weeks (i.e., Q4W). The CXCR2 inhibitor is administered orally twice daily, approximately 12 hours apart, with approximately 240 mL of water on an empty stomach at least 1 hour before or 2 hours after a meal, at about the same time every day. Patients are instructed not to chew the medication but to swallow it whole. The CXCR2 inhibitor is administered at a starting dose of 75 mg BID, two weeks on/two weeks off in each 28-day cycle or one week on/two weeks off in each 21-day cycle. If tolerated, the dose may be escalated to 150 mg BID two weeks on/two weeks off or one week on/two weeks off. […] Multiple dose levels below the MTD may be evaluated simultaneously in order to obtain PK and PD data across a range of doses and to establish the MTD/RDE. […]

human CXCR2 receptor = human CXCR2 receptor (Homo sapiens, UniProt P25025); settings: membranes from CHO cells expressing human CXCR2 receptor
Sequence of human CXCR2 receptor (P25025 whole entry): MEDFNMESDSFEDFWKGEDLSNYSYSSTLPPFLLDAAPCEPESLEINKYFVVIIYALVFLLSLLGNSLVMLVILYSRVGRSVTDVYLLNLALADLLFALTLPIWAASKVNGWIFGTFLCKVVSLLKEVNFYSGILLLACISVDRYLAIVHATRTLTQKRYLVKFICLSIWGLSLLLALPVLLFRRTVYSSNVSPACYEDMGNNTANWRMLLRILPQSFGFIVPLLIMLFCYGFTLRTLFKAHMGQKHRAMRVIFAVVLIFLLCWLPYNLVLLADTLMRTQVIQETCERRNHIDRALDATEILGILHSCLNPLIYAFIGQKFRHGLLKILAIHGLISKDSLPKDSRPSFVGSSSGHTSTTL

neutrophils = test: rhGROα-induced neutrophil migration; type: cell-based
[3] = test system: neutrophils in whole human blood; test: rhGROα-induced neutrophil shape change in whole human blood; type: cell-based

Question: With `CNC(=O)c1cc(Oc2ccc3nc(N[C@@H]4CCCC[C@H]4O)sc3c2)ccn1` [BLZ945, 4-((2-(((1R,2R)-2-hydroxycyclohexyl)amino)benzo[d]thiazol-6-yl)oxy)-N-methylpicolinamide] as the molecule, how does the “PD-L1 expression (mean fluorescence intensity) in F480+ and F480- tumor-infiltrating cells” value (MC38 tumors) read?
Answer: Its value is “enhancement”.

Question: With “PDR001: anti-PD-1 antibody molecule (PD-1 inhibitor, Novartis), also known as Spartalizumab” as the molecule, how does the “EC50 in SEB activation assay” value [1] read?
Answer: The value was 0.5 µg/mL.

Question: What about the EC50 ([1]; read-out: EC50 in SEB activation assay) of the same molecule?
Answer: The EC50 was 3.68 nM.

Question: And the “dose limiting toxicity (DLT)” value [2]?
Answer: Its value is “no patient has developed a DLT”.

Question: Which results are given for `CCC(CC)Nc1c(Nc2ccc(Cl)c(S(=O)(=O)N(C)OC)c2O)c(=O)c1=O` [6-chloro-3-((3,4-dioxo-2-(pentan-3-ylamino)cyclobut-1-en-1-yl)amino)-2-hydroxy-N-methoxy-N-methylbenzenesulfonamide choline salt]?
Answer: GROα and IL-8-stimulated [35S]GTPγS binding (human CXCR2 receptor): inhibits; rhGROα-induced neutrophil migration (neutrophils): dose-dependent inhibition; dose limiting toxicity (DLT) [2]: no patient has developed a DLT; neutrophil shape change induced by rhGROα [3]: dose-dependent inhibition

B1: LAG525: LAG-3 inhibitor (Novartis), anti-LAG-3 antibody molecule (antibody, chains of the INN, looked up, V domains shown)
VH: QVQLVQSGAEVKKPGASVKVSCKASGFTLTNYGMNWVRQARGQRLEWIGWINTDTGEPTYADDFKGRFVFSLDTSVSTAYLQISSLKAEDTAVYYCARNPPYYYGTNNAEAMDYWGQGTTVTVSS
VL: DIQMTQSPSSLSASVGDRVTITCSSSQDISNYLNWYLQKPGQSPQLLIYYTSTLHLGVPSRFSGSGSGTEFTLTISSLQPDDFATYYCQQYYNLPWTFGQGTKVEIK
Question: Which “IL-2 production in the SEB assay on titration” value ([1]; increasing doses of LAG525 with fixed 0.5 ug/ml each of PDR001 and GWN323) does the source give for B1 here?
Answer: The value was “dose-responsive production of IL-2”.
